In ChEMBL document CHEMBL1201862, “PubChem BioAssay data set” (2004):
Calls of active or inactive are those of the source.

Experiments:
[1] = target: 72 kDa type IV collagenase (Homo sapiens, UniProt P08253); assay: Dose Response validation of uHTS RPN11 inhibitor hits using a MMP-2 Fluorescence assay.; assay type: functional
[2] = target: 26S proteasome non-ATPase regulatory subunit 14 (Homo sapiens, UniProt O00487); assay: inhibition of proteasome subunit RPN11 – biochemical, fluorescence polarization, uHTS hits, confirmation (AID 602368); assay type: functional
Prothrombin = Prothrombin (Bos taurus, UniProt P00735); assay: thrombin inhibition, dose response, biochemical, fluorescence polarization, uHTS hits (AID 602369); assay type: functional
[3] = target: T1, Carboxy-terminal domain RNA polymerase II polypeptide A small phosphatase 1 (Homo sapiens, UniProt Q9GZU7); assay: inhibitors of CTDSP1, concentration-response testing, biochemical assay, absorbance-based, actives from ultra-high-throughput screening (AID 540297); assay type: functional
T1 sequence (Q9GZU7 whole entry): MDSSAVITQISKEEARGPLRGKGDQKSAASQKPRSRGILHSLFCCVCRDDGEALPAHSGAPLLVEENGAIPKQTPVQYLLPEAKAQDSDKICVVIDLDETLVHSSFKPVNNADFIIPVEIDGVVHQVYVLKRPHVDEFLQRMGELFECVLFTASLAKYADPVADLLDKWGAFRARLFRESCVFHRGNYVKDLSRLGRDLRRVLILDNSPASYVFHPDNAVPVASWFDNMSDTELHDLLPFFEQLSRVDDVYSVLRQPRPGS

[4] = target: Delta-type opioid receptor (Homo sapiens, UniProt P41143); assay: Counterscreen for agonists of heterodimerization of the mu 1 (OPRM1) and delta 1 (OPRD1) opioid receptors: Luminescence-based cell-based high throughput dose response assay to identify agonists of OPRD1 homodimerization. [Related pubchem assays (depositor defined):AID504326, AID504355, AID504692, AID504904, AID504905]; assay type: functional
Mu-type opioid receptor = Mu-type opioid receptor (Homo sapiens, UniProt P35372); assay: Counterscreen for agonists of heterodimerization of the mu 1 (OPRM1) and delta 1 (OPRD1) opioid receptors: Luminescence-based cell-based high throughput dose response assay to identify agonists of OPRM1 homodimerization.; assay type: functional;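 also: U2OS cells expressing OPRM1 and beta-arrestin as split beta-galactosidase partners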
[5] = target: 5-hydroxytryptamine receptor 5A (Homo sapiens, UniProt P47898); assay: Counterscreen for agonists of OPRM1-OPRD1 heterodimerization: luminescence-based cell-based high throughput dose response assay to identify agonists of 5-hydroxytryptamine (serotonin) 5A receptor (HTR5A). [Related pubchem assays (depositor defined):AID504326, AID504355, AID504692, AID504904, AID504905]; assay type: functional
[6] = cytotoxicity toward NIH3T3 fibroblasts, dose response, counter-screen, cell-based, ATP luminescence, mouse fibroblasts (AID 2010); assay type: functional;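 also: cells exposed to compound for about 90 hours before reading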
Paired box protein Pax-8 = Paired box protein Pax-8 (Homo sapiens, UniProt Q06710); assay: inhibitors of PAX8-driven TPO luciferase reporter, dose response, RMG-I cells, cherry-pick (AID 687027); assay type: functional, cell-based;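 also: luciferase reporter driven by Pax8 target thyroperoxidase promoter measured by SteadyGlo luminescence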
Beta Lactamase [7] = target: T2, Beta Lactamase (Pseudomonas aeruginosa, UniProt Q932Y6); assay: beta-lactamase reporter inhibitor potency, dose response, artefact control for NOD2-RIPK2 interaction inhibitor project, BLA reporter cells, FRET fluorescence (AID 651552); assay type: functional, cell-based
[8] = inhibitors of intracellular T. cruzi replication, confirmation, NIH3T3 host cells, beta-gal luminescence (AID 2044); assay type: functional, cell-based;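 also: intracellular parasites grown in NIH/3T3 mouse fibroblasts as host cells; luminescent beta-galactosidase reporter signal from transgenic T. cruzi replicating inside host cells; inhibitors lower the luminescence signal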
[9] = Fluorescence-based cell-based high throughput dose response assay for inhibitors of the interaction of nucleotide-binding oligomerization domain containing 2 (NOD2) and the receptor-interacting serine-threonine kinase 2 (RIPK2).; assay type: functional; conditions: Homo sapiens
CHO = assay: cytotoxicity in TLR9-MyD88 CHO cells, dose response, cytotoxicity control for TLR9-MyD88 binding inhibitor project, cell-based, luminescence (AID 588339); assay type: functional, hamster; conditions: Cricetulus griseus;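 also: CHO cells stably coexpressing TLR9 and MyD88 fusions from primary screen; compound exposure lasted 48 hours before viability readout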
Beta Lactamase [10] = target: T2, Beta Lactamase; assay: beta-lactamase reporter inhibitor potency, dose response, artefact control for TLR9-MyD88 binding inhibitor project, BLA reporter cells, FRET fluorescence (AID 588341); assay type: cell-based;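 also: cell based assay in CHO-K1 cells stably expressing beta-lactamase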
INS1 = assay: beta cell apoptosis inhibitors, cytokine rescue, dose response, luminescence, retest (AID 449756); assay type: functional, cell-based; conditions: Rattus norvegicus;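 also: cell death triggered by IL-1 beta plus TNF-alpha plus IFN-gamma mixture; protective hits raise ATP signal compared with cytokine alone wells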
[11] = Luminescence Cell-Based Dose Confirmation HTS to Identify Activators of 5'UTR Stem-Loop Driven Alpha-Synuclein mRNA Translation in H4 Neuroglioblastoma Cells. [Related pubchem assays: 1829 (Project Summary), 1814 (Primary HTS)]; assay type: functional
H4 = assay: Luminescence Cell-Based Dose Response HTS to Identify Activators of 5'UTR Stem-Loop Driven Prion Protein mRNA Translation in H4 Neuroglioblastoma Cells. [Related pubchem assays: 1829 (Project Summary), 1814 (Primary HTS)]; assay type: functional; conditions: Homo sapiens
HeLa = assay: HeLa cell cytotoxicity, dose response, cytotoxicity control for MITF activator project, CellTiter-Glo luminescence, cherry-pick samples (AID 540259); assay type: functional, cell-based; conditions: Homo sapiens
[12] = Luminescence Cell-Based Dose Response HTS to Identify Activators of Luciferase Translation or Activity in H4 […] Cells. [Related pubchem assays: 1829 (Project Summary), 1814 (Primary HTS)]; assay type: functional
[13] = target: Photoreceptor-specific nuclear receptor (Homo sapiens, UniProt Q9Y5X4); assay type: functional, cell-based;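 also: CHO-S cells with Gal4-NCOR and VP16-NR2E3 two-hybrid luciferase reporter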
Escherichia coli = assay: microbe, parasite or virus in culture
[14] = target: T3, Sentrin-specific protease 1 (Homo sapiens, UniProt Q9P0U3); assay: Dose response confirmation of small molecule inhibitors of the catalytic domain of the SUMO protease, SENP1 in a FRET assay.; assay type: functional; conditions: read-out: IC50_Mean
T3 sequence (Q9P0U3 whole entry): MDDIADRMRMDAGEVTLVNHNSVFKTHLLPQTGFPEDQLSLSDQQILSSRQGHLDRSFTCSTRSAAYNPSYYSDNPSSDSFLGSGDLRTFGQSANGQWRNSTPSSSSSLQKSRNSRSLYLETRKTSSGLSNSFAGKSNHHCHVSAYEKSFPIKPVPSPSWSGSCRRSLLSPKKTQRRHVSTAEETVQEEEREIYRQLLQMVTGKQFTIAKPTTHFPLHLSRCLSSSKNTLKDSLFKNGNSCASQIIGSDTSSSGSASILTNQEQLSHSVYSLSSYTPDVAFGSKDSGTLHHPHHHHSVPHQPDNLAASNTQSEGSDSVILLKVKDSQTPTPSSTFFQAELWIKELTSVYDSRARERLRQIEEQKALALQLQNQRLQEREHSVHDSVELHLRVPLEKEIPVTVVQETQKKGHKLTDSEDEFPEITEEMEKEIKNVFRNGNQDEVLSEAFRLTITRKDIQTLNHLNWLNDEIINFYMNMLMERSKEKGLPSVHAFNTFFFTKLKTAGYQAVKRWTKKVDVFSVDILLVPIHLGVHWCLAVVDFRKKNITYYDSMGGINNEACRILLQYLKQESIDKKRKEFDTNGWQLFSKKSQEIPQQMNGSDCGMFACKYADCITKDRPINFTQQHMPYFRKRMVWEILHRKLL

[15] = target: T3, Sentrin-specific protease 1; assay: potency of human SENP1 inhibitors, dose response, biochemical, kinetic FRET (AID 651697); assay type: functional; conditions: read-out: IC50_Mean

T2 sequence (Q932Y6 whole entry): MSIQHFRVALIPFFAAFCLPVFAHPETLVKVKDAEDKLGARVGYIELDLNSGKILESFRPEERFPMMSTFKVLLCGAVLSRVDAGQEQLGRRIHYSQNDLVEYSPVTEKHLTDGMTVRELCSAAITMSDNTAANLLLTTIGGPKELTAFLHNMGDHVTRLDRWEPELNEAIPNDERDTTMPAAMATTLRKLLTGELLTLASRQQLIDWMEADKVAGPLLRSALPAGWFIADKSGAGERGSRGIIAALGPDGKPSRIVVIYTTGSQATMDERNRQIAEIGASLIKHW
Mu-type opioid receptor, sequence (P35372 whole entry): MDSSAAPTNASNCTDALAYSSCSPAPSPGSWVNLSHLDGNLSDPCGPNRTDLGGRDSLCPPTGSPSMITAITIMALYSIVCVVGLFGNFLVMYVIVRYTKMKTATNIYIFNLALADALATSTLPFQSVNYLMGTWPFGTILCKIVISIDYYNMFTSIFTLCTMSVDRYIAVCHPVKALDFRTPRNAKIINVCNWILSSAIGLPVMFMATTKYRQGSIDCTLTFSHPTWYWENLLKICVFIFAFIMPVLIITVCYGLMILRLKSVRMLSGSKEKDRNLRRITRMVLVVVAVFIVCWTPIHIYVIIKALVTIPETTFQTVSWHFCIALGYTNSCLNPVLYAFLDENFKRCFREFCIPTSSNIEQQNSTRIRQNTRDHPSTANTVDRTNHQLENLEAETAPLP
Paired box protein Pax-8, sequence (Q06710 whole entry): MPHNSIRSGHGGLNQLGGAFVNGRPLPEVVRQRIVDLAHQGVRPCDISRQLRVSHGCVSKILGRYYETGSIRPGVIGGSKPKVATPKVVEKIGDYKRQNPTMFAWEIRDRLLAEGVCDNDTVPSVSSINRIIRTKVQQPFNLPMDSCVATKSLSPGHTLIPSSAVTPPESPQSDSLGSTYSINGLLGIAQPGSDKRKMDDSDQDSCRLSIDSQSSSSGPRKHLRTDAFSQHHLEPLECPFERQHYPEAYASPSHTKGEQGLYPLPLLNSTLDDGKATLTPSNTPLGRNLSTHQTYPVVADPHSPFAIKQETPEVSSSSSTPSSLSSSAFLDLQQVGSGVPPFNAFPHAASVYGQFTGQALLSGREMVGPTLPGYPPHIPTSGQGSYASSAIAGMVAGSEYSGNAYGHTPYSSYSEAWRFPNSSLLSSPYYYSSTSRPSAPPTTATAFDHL
5-hydroxytryptamine receptor 5A, sequence (P47898 whole entry): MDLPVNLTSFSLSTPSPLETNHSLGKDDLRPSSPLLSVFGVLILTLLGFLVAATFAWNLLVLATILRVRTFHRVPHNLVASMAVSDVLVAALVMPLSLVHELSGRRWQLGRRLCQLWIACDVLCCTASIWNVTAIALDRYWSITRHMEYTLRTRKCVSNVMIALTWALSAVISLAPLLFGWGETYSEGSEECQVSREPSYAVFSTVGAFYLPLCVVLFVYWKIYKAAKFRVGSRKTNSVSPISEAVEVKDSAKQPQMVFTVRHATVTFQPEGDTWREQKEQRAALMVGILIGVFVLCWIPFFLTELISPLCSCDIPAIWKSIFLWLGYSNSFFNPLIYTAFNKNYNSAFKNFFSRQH
72 kDa type IV collagenase, sequence (P08253 whole entry): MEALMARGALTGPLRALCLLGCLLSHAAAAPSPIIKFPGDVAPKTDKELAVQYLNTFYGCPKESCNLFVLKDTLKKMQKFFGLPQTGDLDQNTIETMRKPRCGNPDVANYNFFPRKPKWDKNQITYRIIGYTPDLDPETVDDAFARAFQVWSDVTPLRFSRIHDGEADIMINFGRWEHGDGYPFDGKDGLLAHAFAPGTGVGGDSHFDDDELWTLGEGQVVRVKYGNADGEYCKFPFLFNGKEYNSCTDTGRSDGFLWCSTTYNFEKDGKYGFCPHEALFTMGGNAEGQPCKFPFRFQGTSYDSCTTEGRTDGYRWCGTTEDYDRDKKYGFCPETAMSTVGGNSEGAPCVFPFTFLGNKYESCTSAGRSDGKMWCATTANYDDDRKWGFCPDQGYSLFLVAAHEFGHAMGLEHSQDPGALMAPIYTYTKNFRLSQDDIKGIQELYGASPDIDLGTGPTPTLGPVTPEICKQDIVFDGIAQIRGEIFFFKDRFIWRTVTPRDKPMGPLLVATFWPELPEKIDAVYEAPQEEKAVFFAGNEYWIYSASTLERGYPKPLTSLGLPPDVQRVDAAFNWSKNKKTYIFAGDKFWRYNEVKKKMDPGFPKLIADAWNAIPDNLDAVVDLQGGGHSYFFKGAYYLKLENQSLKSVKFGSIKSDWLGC
26S proteasome non-ATPase regulatory subunit 14, sequence (O00487 whole entry): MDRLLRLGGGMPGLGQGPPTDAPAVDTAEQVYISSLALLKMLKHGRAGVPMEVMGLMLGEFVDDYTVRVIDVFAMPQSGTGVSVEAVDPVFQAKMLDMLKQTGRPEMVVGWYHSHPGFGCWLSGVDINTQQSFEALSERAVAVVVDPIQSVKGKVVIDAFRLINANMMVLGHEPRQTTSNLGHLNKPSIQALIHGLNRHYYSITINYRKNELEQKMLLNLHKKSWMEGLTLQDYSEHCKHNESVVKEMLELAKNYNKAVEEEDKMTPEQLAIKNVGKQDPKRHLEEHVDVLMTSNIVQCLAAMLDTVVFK
Photoreceptor-specific nuclear receptor, sequence (Q9Y5X4 whole entry, the tested form may be a part): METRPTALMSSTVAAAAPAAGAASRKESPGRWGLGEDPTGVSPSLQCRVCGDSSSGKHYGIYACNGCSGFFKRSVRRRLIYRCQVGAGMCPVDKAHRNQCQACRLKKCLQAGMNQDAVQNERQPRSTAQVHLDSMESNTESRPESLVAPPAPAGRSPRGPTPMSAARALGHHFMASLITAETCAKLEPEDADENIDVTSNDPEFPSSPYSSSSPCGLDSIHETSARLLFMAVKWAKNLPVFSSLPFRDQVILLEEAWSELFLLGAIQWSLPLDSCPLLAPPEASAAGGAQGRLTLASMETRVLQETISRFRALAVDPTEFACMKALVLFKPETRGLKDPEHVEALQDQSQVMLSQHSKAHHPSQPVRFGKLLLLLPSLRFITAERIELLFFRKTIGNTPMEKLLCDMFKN
Delta-type opioid receptor, sequence (P41143 whole entry): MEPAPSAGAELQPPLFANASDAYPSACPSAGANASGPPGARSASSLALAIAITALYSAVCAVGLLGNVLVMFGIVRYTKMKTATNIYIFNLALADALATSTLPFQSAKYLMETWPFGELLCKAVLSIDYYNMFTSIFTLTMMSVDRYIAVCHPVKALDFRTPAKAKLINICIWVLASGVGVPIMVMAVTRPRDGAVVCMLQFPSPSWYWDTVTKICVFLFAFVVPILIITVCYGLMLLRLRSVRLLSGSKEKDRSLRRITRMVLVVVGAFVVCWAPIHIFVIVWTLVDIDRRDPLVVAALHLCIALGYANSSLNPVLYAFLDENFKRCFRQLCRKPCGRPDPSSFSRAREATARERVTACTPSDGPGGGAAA

In the case of CC(=O)N1CCc2cc(NN=C3C(=O)CCCC3=O)ccc21, the IC50 [1] is reported as > 100 µM (inactive), the IC50 [2] is reported as 30.2 µM (active) and the IC50 (Prothrombin) is reported as 43.2 µM (active).
With COc1ccccc1-n1cnc2c(c1=O)c1nc3ccccc3nc1n2-c1ccc(C)cc1 the IC50 [3] was 8.78 µM (active).
For Cc1cc(Cl)ccc1OCC(=O)N[C@@H](Cc1ccccc1)c1nc2ccccc2[nH]1, the EC50 [4] was > 92.5 µM (inactive), the EC50 (Mu-type opioid receptor) was > 92.5 µM (inactive) and the EC50 [5] was > 92.5 µM (inactive). The IC50 [3] was 21.5 µM (active).
For COc1ccc(OC)c2sc(N(CCCN(C)C)C(=O)CCS(=O)(=O)c3ccccc3)nc12, the EC50 [6] was 6.44 µM (active), the AC50 (Paired box protein Pax-8) was 4.77 µM (active) and the IC50 (Beta Lactamase [7]) was 32.1 µM (inactive). For the same compound, the EC50 [8] was 4.32 µM (active) and the IC50 [9] was 2.06 µM (active).
For CC(C)CNC(=O)COC(=O)c1c2c(nc3ccccc13)/C(=C/c1cccs1)CC2, the IC50 (CHO) was > 49.7 µM (inactive), the IC50 (Beta Lactamase [10]) was 3.52 µM (active) and the AC50 (INS1) was 43.8 µM (active).
For Cc1ccc(-n2nnc(-c3ccnc4ccccc34)n2)cc1, the EC50 [11] was 371 nM (active), the EC50 (H4) was 14.5 µM (active) and the AC50 (HeLa) was 45.4 µM (active). For the same compound, the EC50 [12] was 745 nM (active).
With Nc1nc(N)nc(-c2cc(O)ccc2O)n1 the IC50 [13] was 5.7 µM (active).
With c1ccc2c(-c3csc(-c4ccncc4)n3)c[nH]c2c1 the AC50 (HeLa) was 40.5 µM (active).
With O=C(COc1ccc2c3c(c(=O)oc2c1)CCCC3)NCc1ccncc1 the AC50 (Escherichia coli) was 38.2 µM (active).
In the case of COc1ccc(N2C(=O)C3C(C2=O)C(C(=O)c2ccccc2)N2CCCC32)cc1 (stereo not given), the IC50 [14] is reported as 11 µM (active) and the IC50 [15] is reported as 31 µM (inactive).
